Paper PMC8348142, “Antimicrobial Peptide Modifications against Clinically Isolated Antibiotic-Resistant Salmonella” (Molecules, 2021)
Marks after values point to notes of the source that are not given here. Ends that are not written are not given here.

Assays:
[1] = test system: sheep red blood cells; assay: Hemolytic activity assay; format: cell-based; conditions: for percent hemolysis: 2% sRBCs in PBS, 37 °C, 1 h, OD540, triplicate mean
Description: The peptide toxicity to the mammalian system was screened based on the hemolytic test by measuring the hemoglobin released from ruptured red blood cells (RBCs). In this study, sheep RBCs (sRBCs) were employed. They were thrice washed and prepared as a suspension in phosphate-buffered saline (PBS, Oxoid). A suspension of 2% sRBCs was incubated with 2-fold serial dilutions of peptide (final concentrations; 256 to 1 µM in a total volume of 200 µL) at 37 °C for 1 h. The solutions of 0.1% (final concentration) Triton X-100 (Sigma-Aldrich) and PBS containing the peptide solvent were used instead of the peptides as the controls of hemolysis at 100% and 0%, respectively. Thereafter, the post-incubated suspensions were centrifuged (1000× g, 3 min) to pelletize residual sRBCs. The supernatants were then transferred into a flat-bottom PS 96-well plate and were measured the absorbance at 540 nm (OD540) by a microplate reader. The test was conducted in triplicate and the mean OD540 was used to calculate the hemolysis (%) as; ((OD540 (peptide) − OD540 (PBS + peptide solvent))/(OD540 (0.1% Triton X-100) − OD540 (PBS + peptide solvent))) × 100. The hemolytic concentration 50 (HC50), a concentration inducing 50% hemolysis, was determined.
The GraphPad Prism version 7.00 (GraphPad Software, La Jolla, CA, USA) was applied for all statistical analyses and data visualizations. Replicate quantitative results were calculated and shown as mean ± SD, unless otherwise specified. The HC50 values were determined using nonlinear regression analysis. The paired t-test and repeated measures one-way ANOVA with Tukey’s multiple comparison test were applied to compare between 2 groups and among 3 or more groups, respectively. The comparisons were considered as a statistically significant difference when a p-value < 0.05.

[2] = test system: clinical Salmonella isolates; assay: MIC, broth microdilution; format: cell-based; conditions: for MIC: MHB, 5 × 10^5 CFU/mL, 37 °C, 18 h, duplicate
Description: (§1) All 12 isolates of Salmonella used in this study were clinical isolates and anonymous left-overs from laboratory diagnoses. They were maintained in a 20% glycerol (Sigma-Aldrich) stock at −80 °C and further cultured on Mueller-Hinton agar (MHA, Oxoid, Hampshire, UK) at 37 °C for 18 h to obtain single colonies for antimicrobial assays. This study was approved by the Ethics Committee of the Faculty of Tropical Medicine (Mahidol University, Bangkok, Thailand; MUTM-EXMPT 2017-007).
MIC was determined using the broth microdilution method described by Hancock with some modifications. Briefly, bacterial colonies grown from the MHA were prepared in MHB (Oxoid) as a 0.5 McFarland suspension (which is equal to 1 × 10^8 CFU/mL), and was further 200-fold diluted by the MHB (5 × 10^5 CFU/mL). The bacterial suspension (50 µL) was mixed with 2-fold serial dilutions of peptide (5.5 µL) achieving final concentrations of 256 to 1 µM using a round-bottom polypropylene (PP) 96-well plate (Greiner Bio-One). The plate was incubated at 37 °C for 18 h including incubating peptide free-bacteria as positive growth control, and MHB as negative growth control. After the incubation, the lowest concentration with no visible growth was defined as a MIC value. The assay was performed in a duplicate manner.

[3] = test system: clinical Salmonella isolates; assay: MBC, drop plate method, and MBC/MIC mode of action; format: cell-based; conditions: for MBC: drop plate on MHA from MIC plate, 37 °C, 18 h, thrice
Description: as §1
The plate derived from the MIC assay was immediately tested for the MBC using a drop plate method. A volume of 10 µL of the culture from individual wells at MIC, 2MIC, and 4MIC was dropped on MHA plates. […] The experiment was thrice performed.
In order to determine whether the peptides have bacteriostatic or bactericidal activity, a ratio of MBC to MIC (MBC/MIC) was applied. The ratio >4 was indicative of bacteriostatic peptide, and ≤4 was inferred as bactericidal peptide.

[4] = Overall hydrophobicity from RP-HPLC data (percent acetonitrile at elution); format: physicochemical; conditions: percentage of acetonitrile at which the peptide eluted, more % ACN = more hydrophobic
[5] = geometric mean over 12 clinical Salmonella isolates

Question: For FIRRIARLLRRIF-NH2 [Kn2-5R-NH2], which “HC50 (hemolytic concentration 50)” value ([1]; concentration inducing 50% hemolysis of sRBCs, nonlinear regression, unit (µM)) is on record?
Answer: Its value is 67.09 µM.

Question: And the percent hemolysis ([1]; peptide 1 µM)?
Answer: The percent hemolysis was 0.1%.

Question: What about the percent hemolysis ([1]; peptide 2 µM) of the same substance?
Answer: Its percent hemolysis is 0.3%.

Question: What about the percent hemolysis ([1]; peptide 4 µM) of the same substance?
Answer: The percent hemolysis was 2 * %.

Question: And the percent hemolysis ([1]; peptide 8 µM)?
Answer: Its percent hemolysis is 2.5%.

Question: What about the percent hemolysis ([1]; peptide 16 µM) of the same substance?
Answer: The percent hemolysis was 5.4%.

Question: And the percent hemolysis ([1]; peptide 32 µM)?
Answer: The percent hemolysis was 16.9%.

Question: What about the percent hemolysis ([1]; peptide 64 µM) of the same substance?
Answer: Its percent hemolysis is 40.3%.

Question: What about the percent hemolysis ([1]; peptide 128 µM) of the same substance?
Answer: Its percent hemolysis is 99.3%.

Question: What about the percent hemolysis ([1]; peptide 256 µM) of the same substance?
Answer: Its percent hemolysis is 99.5%.

Question: And the “concentration required for the initiation of hemolysis” value ([1]; sRBCs, 60 min, 256–1 µM tested)?
Answer: Its value is 1 µM.

Question: And the “GM of MIC (GMMIC)” value [2, 5]?
Answer: The value was 4 µM.

Question: What about the MIC ([2]; isolate 5 (Enteritidis, blood; resistant AMP, SXT, KZ)) of the same substance?
Answer: The MIC was 4 µM.

Question: What about the MIC ([2]; isolate 7 (Typhimurium, blood; resistant AMP, CN, TE, NA, SXT)) of the same substance?
Answer: The MIC was 4 µM.

Question: And the MIC ([2]; isolate 11 (I 1,4:i:-, blood; resistant AMP, TE, NA, SXT, C))?
Answer: Its MIC is 4 µM.

Question: And the MIC ([2]; isolate 18 (Stanley, urine; resistant TE, SXT, C))?
Answer: Its MIC is 4 µM.

Question: What about the MIC ([2]; isolate 26 (Typhimurium, urine; resistant TZP, TE, NA)) of the same substance?
Answer: Its MIC is 4 µM.

Question: What about the MIC ([2]; isolate 27 (Typhimurium, stool; resistant AMP, TE, NA, SXT, CIP)) of the same substance?
Answer: The MIC was 4 µM.

Question: What about the MIC ([2]; isolate 55 (Typhimurium, blood; resistant AMP, SXT, C, TE)) of the same substance?
Answer: Its MIC is 4 µM.

Question: And the MIC ([2]; isolate 61 (Enteritidis, blood; resistant AMP, TE, NA, SXT))?
Answer: The MIC was 4 µM.

Question: What about the MIC ([2]; isolate 69 (Typhimurium, stool; resistant AMP)) of the same substance?
Answer: Its MIC is 4 µM.

Question: What about the MIC ([2]; isolate 76 (Enteritidis, CSF; resistant NA)) of the same substance?
Answer: The MIC was 4 µM.

Question: What about the MIC ([2]; isolate 78 (Enteritidis, blood; resistant TE, CIP, NA, SXT)) of the same substance?
Answer: Its MIC is 4 µM.

Question: And the MIC ([2]; isolate 107 (Typhimurium, stool; susceptible))?
Answer: The MIC was 4 µM.

Question: And the GM of MBC [3, 5]?
Answer: Its GM of MBC is 4 µM.

Question: And the MBC ([3]; isolate 5 (Enteritidis))?
Answer: The MBC was 4 µM.

Question: What about the MBC ([3]; isolate 7 (Typhimurium)) of the same substance?
Answer: Its MBC is 4 µM.

Question: And the MBC ([3]; isolate 11 (I 1,4:i:-))?
Answer: Its MBC is 4 µM.

Question: And the MBC ([3]; isolate 18 (Stanley))?
Answer: Its MBC is 4 µM.

Question: And the MBC ([3]; isolate 26 (Typhimurium))?
Answer: Its MBC is 4 µM.

Question: And the MBC ([3]; isolate 27 (Typhimurium))?
Answer: Its MBC is 4 µM.

Question: What about the MBC ([3]; isolate 55 (Typhimurium)) of the same substance?
Answer: The MBC was 4 µM.

Question: What about the MBC ([3]; isolate 61 (Enteritidis)) of the same substance?
Answer: The MBC was 4 µM.

Question: What about the MBC ([3]; isolate 69 (Typhimurium)) of the same substance?
Answer: Its MBC is 4 µM.

Question: What about the MBC ([3]; isolate 76 (Enteritidis)) of the same substance?
Answer: Its MBC is 4 µM.

Question: And the MBC ([3]; isolate 78 (Enteritidis))?
Answer: The MBC was 4 µM.

Question: And the MBC ([3]; isolate 107 (Typhimurium))?
Answer: The MBC was 4 µM.

Question: And the MBC/MIC ratio ([3]; ≤4 bactericidal, >4 bacteriostatic, 12 clinical Salmonella isolates)?
Answer: The MBC/MIC ratio was 1.

Question: What about the “ACN (%) at elution, overall hydrophobicity” value [4] of the same substance?
Answer: Its value is 42.1%.
